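All cell lines were grown in 96-well plates and treated with compound for 48 hours. TGI: concentration producing complete growth inhibition.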
Assays:
Test in all cases: NCI-60 cell line screen, 48 h
HS 578T breast = system: HS 578T breast
HOP-62 NSCLC = system: HOP-62 NSCLC
UACC-257 melanoma = system: UACC-257 melanoma
HL-60(TB) leukemia = system: HL-60(TB) leukemia
SF-295 CNS = system: SF-295 CNS
MALME-3M melanoma = system: MALME-3M melanoma
BT-549 breast = system: BT-549 breast
SN12C renal = system: SN12C renal
OVCAR-5 ovarian = system: OVCAR-5 ovarian
OVCAR-4 ovarian = system: OVCAR-4 ovarian
U251 CNS = system: U251 CNS
NCI-H460 lung = system: NCI-H460 lung
MDA-MB-231 breast = system: MDA-MB-231 breast
EKVX NSCLC = system: EKVX NSCLC
SW-620 colon = system: SW-620 colon
SK-OV-3 ovarian = system: SK-OV-3 ovarian
SK-MEL-5 melanoma = system: SK-MEL-5 melanoma
COLO 205 colon = system: COLO 205 colon
NCI-H522 lung = system: NCI-H522 lung
SK-MEL-28 melanoma = system: SK-MEL-28 melanoma
M14 melanoma = system: M14 melanoma
HCC-2998 colon = system: HCC-2998 colon
MCF7 breast = system: MCF7 breast
SR leukemia = system: SR leukemia
UO-31 renal = system: UO-31 renal
SF-539 CNS = system: SF-539 CNS
T-47D breast = system: T-47D breast
CCRF-CEM leukemia = system: CCRF-CEM leukemia
LOX IMVI melanoma = system: LOX IMVI melanoma
SNB-19 CNS = system: SNB-19 CNS
HCT-15 colon = system: HCT-15 colon
RXF 393 renal = system: RXF 393 renal
CAKI-1 renal = system: CAKI-1 renal
A549 NSCLC = system: A549 NSCLC
MDA-N = system: MDA-N
SK-MEL-2 melanoma = system: SK-MEL-2 melanoma
SF-268 CNS = system: SF-268 CNS
K-562 leukemia = system: K-562 leukemia
IGROV1 ovarian = system: IGROV1 ovarian
RPMI-8226 leukemia = system: RPMI-8226 leukemia
OVCAR-8 ovarian = system: OVCAR-8 ovarian
TK-10 renal = system: TK-10 renal
A498 renal = system: A498 renal
786-0 renal = system: 786-0 renal
NCI-H23 lung = system: NCI-H23 lung
DU-145 prostate = system: DU-145 prostate
UACC-62 melanoma = system: UACC-62 melanoma
HOP-92 NSCLC = system: HOP-92 NSCLC
MDA-MB-435 = system: MDA-MB-435
HT29 colon = system: HT29 colon
PC-3 prostate = system: PC-3 prostate
NCI-H226 lung = system: NCI-H226 lung
ACHN renal = system: ACHN renal
OVCAR-3 ovarian = system: OVCAR-3 ovarian
NCI/ADR-RES ovarian = system: NCI/ADR-RES ovarian
SNB-75 CNS = system: SNB-75 CNS
MOLT-4 leukemia = system: MOLT-4 leukemia
HCT-116 colon = system: HCT-116 colon
KM12 colon = system: KM12 colon

COc1ccc(/C=N/c2nc3cc4sc(/N=C/c5ccc(OC)cc5)nc4cc3s2)cc1
TGI (HS 578T breast): > 81.8 µM
TGI (HOP-62 NSCLC): > 100 µM
TGI (UACC-257 melanoma): > 100 µM
TGI (HL-60(TB) leukemia): > 100 µM
TGI (SF-295 CNS): > 100 µM
TGI (MALME-3M melanoma): > 100 µM
TGI (BT-549 breast): > 100 µM
TGI (SN12C renal): > 100 µM
TGI (OVCAR-5 ovarian): > 100 µM
TGI (OVCAR-4 ovarian): > 100 µM
TGI (U251 CNS): > 100 µM
TGI (NCI-H460 lung): > 100 µM
TGI (MDA-MB-231 breast): > 100 µM
TGI (EKVX NSCLC): > 100 µM
TGI (SW-620 colon): > 100 µM
TGI (SK-OV-3 ovarian): > 100 µM
TGI (SK-MEL-5 melanoma): > 100 µM
TGI (COLO 205 colon): > 22.4 µM
TGI (NCI-H522 lung): > 52.7 µM
TGI (SK-MEL-28 melanoma): > 100 µM
TGI (M14 melanoma): > 100 µM
TGI (HCC-2998 colon): 71.4 µM
TGI (MCF7 breast): > 88.9 µM
TGI (SR leukemia): > 100 µM
TGI (UO-31 renal): > 100 µM
TGI (SF-539 CNS): > 100 µM
TGI (T-47D breast): > 100 µM
TGI (CCRF-CEM leukemia): > 45.2 µM
TGI (LOX IMVI melanoma): > 100 µM
TGI (SNB-19 CNS): > 100 µM
TGI (HCT-15 colon): > 100 µM
TGI (RXF 393 renal): > 100 µM
TGI (CAKI-1 renal): > 100 µM
TGI (A549 NSCLC): > 100 µM
TGI (MDA-N): > 100 µM
TGI (SK-MEL-2 melanoma): > 100 µM
TGI (SF-268 CNS): > 100 µM
TGI (K-562 leukemia): > 100 µM
TGI (IGROV1 ovarian): > 100 µM
TGI (RPMI-8226 leukemia): > 100 µM
TGI (OVCAR-8 ovarian): > 100 µM
TGI (TK-10 renal): > 94.8 µM
TGI (A498 renal): > 100 µM
TGI (786-0 renal): > 100 µM
TGI (NCI-H23 lung): 97.7 µM
TGI (DU-145 prostate): > 100 µM
TGI (UACC-62 melanoma): > 100 µM
TGI (HOP-92 NSCLC): > 100 µM
TGI (MDA-MB-435): 99.5 µM
TGI (HT29 colon): > 100 µM
TGI (PC-3 prostate): > 100 µM
TGI (NCI-H226 lung): > 77.8 µM
TGI (ACHN renal): > 100 µM
TGI (OVCAR-3 ovarian): > 100 µM
TGI (NCI/ADR-RES ovarian): > 100 µM
TGI (SNB-75 CNS): > 100 µM
TGI (MOLT-4 leukemia): > 100 µM
TGI (HCT-116 colon): > 100 µM
TGI (KM12 colon): > 100 µM

From PubChem BioAssay (NCI)
